For the test, the system named is autophagy flux in KRAS G12C mutated non-small cell lung cancer cells. Kind of test: Autophagy flux assay in H358 cells, DCC-3116 with adagrasib or sotorasib. The test is classed as cell-based. Conditions: FIG. 12B. As to the method: Constructs were designed through VectorBuilder. For each cell line, 10 ml of appropriate media was mixed with Polybrene (VectorBuilder, Cat #PL0001, stock concentration 5 mg/ml, 200 ul) to a final concentration of 15 ng/μL. These solutions were added to the 6-well plate with various cell lines plated the previous day. Cells were checked after 22 hours of incubation. Media was then removed from the cells and incubated with fresh media containing puromycin (Sigma Cat #P9620). Cells that survived puromycin selection and successfully expressed mCherry-GFP-LC3 were used for flux assays.
Cells are seeded in FluoroBrite DMEM (Gibco Ref #A18967-01) supplemented with 10% FBS (Gibco ref #A384000-001) and Pen/Strep/Glutamine (Gibco Ref #10378-016) at appropriate seeding numbers defined empirically. The next day, cells are treated with DCC-3116 and/or sotorasib or adagrasib or DMSO as a control. Cells are placed in the IncuCyte for live cell imaging over the indicated time length at 37° C. with 20% 02 and 5% CO2. Cells were imaged at 4× objective lens every four hours. The data was analyzed using the Incucyte software by measuring Total Integrated Intensity (GCUX μM2/images) of red (mCherry) divided by (GCUX μM2/images) green (GFP) to measure the ratio of red/green signal change over time.

The values below come from US20240180923A1, “METHODS OF TREATING DISORDERS WITH ULK INHIBITORS” (Deciphera Pharmaceuticals, LLC, priority 2022, published 2024).

Molecules are shown by their SMILES.

As for `CCc1cc(N2CCN(C)CC2)ccc1Nc1ncc(C(F)(F)F)c(NCCCN2CCOCCC2=O)n1` [DCC-3116], the “effect on KRAS G12C inhibitor (adagrasib or sotorasib)-induced autophagy flux” value is recorded as “inhibits”.
